Reference: patent US20050107376A1, “Fungicidal mixtures based on prothioconazole” (priority 2002, published 2005)

What was measured:
[1] = tested on: Erysiphe [syn. Blumeria] graminis forma specialis. tritici; test: Activity against mildew of wheat (protective spray, wheat seedlings cultivar Kanzler); assay type: in vivo; details: 7 days, control 77% infestation
Protocol: (§1) The active compounds, separately or together, were formulated as a 10% emulsion in a mixture of 63% by weight of cyclohexanone and 27% by weight of emulsifier, and diluted with water to the desired concentration.
(§2) Evaluation was carried out by determining the infected leaf areas in percent. These percentages were converted into efficacies. The efficacy (W) was calculated as follows using Abbot's formula: [formula] • α corresponds to the fungal infection of the treated plants in % and • β corresponds to the fungal infection of the untreated (control) plants in %
(§3) An efficacy of 0 means that the infection level of the treated plants corresponds to that of the untreated control plants; an efficacy of 100 means that the treated plants were not infected.
(§4) The expected efficacies of the mixtures of the active compounds were determined using Colby's formula [R. S. Colby, Weeds 15, 20-22 (1967)] and compared with the observed efficacies. Colby's formula: E x+y−x•y/100 • E expected efficacy, expressed in % of the untreated control, when using the mixture of the active compounds A and B at the concentrations a and b • x efficacy, expressed in % of the untreated control, when using active compound A at a concentration of a • y efficacy, expressed in % of the untreated control, when using active compound B at a concentration of b.
Leaves of wheat seedlings of the cultivar “Kanzler”, which had been grown in pots, were sprayed to runoff point with an aqueous suspension having the concentration of active compound stated below. The suspension or emulsion was prepared from a stock solution with 10% of active compound in a mixture comprising 85% of cyclohexanone and 5% of emulsifier. 24 hours after the spraycoating had dried on, the plants were dusted with spores of mildew of wheat (Erysiphe [syn. Blumeria] graminis forma specialis. tritici). The test plants were then placed in a greenhouse at 20-24° C. and 60-90% relative atmospheric humidity. After 7 days, the extent of the mildew development was determined visually in % infection of the total leaf area.
The visually determined values for the percentage of diseased leaf areas were converted into efficacies in % of the untreated control. An efficacy of 0 means the same disease level as in the untreated control, an efficacy of 100 means 0% disease. The expected efficacies for combinations of active compounds were determined using the abovementioned Colby formula and compared with the observed efficacies.

Puccinia recondita = test: Curative activity against brown rust of wheat (wheat seedlings cultivar Kanzler); assay type: in vivo; details: 7 days, control 90% infestation
Protocol: as §1, §2, §3, §4
Leaves of wheat seedlings of the cultivar “Kanzler”, which had been grown in pots, were dusted with spores of brown rust (Puccinia recondita). The pots were then placed in a chamber with high atmospheric humidity (90-95%), at 20-22° C. During this time, the spores germinated and the germinal tubes penetrated into the leaf tissue. The next day, the infected plants were sprayed to runoff point with an aqueous suspension having the concentration of active compound stated below. The suspension or emulsion was prepared from a stock solution with 10% of active compound in a mixture comprising 85% of cyclohexanone and 5% of emulsifier. After the spray coating had dried on, the test plants were cultivated in a greenhouse at 20-22° C. in 65-70% relative atmospheric humidity for 7 days. The extent of the rust fungus development on the leaves was then determined.
The visually determined values for the percentage of diseased leaf areas were converted into efficacies in % of the untreated control. An efficacy of 0 means the same disease level as in the untreated control, an efficacy of 100 means 0% disease. The expected efficacies for active compound combinations were determined using the abovementioned Colby formula and compared with the observed efficacies.

OC(Cc1ccccc1Cl)(Cn1nc[nH]c1=S)C1(Cl)CC1 (stereo not drawn) [Compound I, 2-[2-(1-chlorocyclopropyl)-3-(2-chlorophenyl)-2-hydroxy-propyl]-2,4-dihydro-[1,2,4]-triazole-3-thione]
Efficacy in % of the untreated control ([1]; 0.25 ppm in the spray liquor): 0%
Efficacy in % of the untreated control ([1]; 1 ppm in the spray liquor): 0%
Efficacy in % of the untreated control (Puccinia recondita; 0.25 ppm in the spray liquor): 22%
Efficacy in % of the untreated control (Puccinia recondita; 1 ppm in the spray liquor): 78%

CC(Cc1ccc(C(C)(C)C)cc1)CN1C[C@@H](C)O[C@@H](C)C1 (stereo partly drawn) [Compound II, fenpropimorph]
Efficacy in % of the untreated control ([1]; 0.15 ppm in the spray liquor): 0%
Efficacy in % of the untreated control ([1]; 0.6 ppm in the spray liquor): 0%
Efficacy in % of the untreated control ([1]; 2.5 ppm in the spray liquor): 74%
Efficacy in % of the untreated control (Puccinia recondita; 0.15 ppm in the spray liquor): 0%
Efficacy in % of the untreated control (Puccinia recondita; 0.6 ppm in the spray liquor): 0%
Efficacy in % of the untreated control (Puccinia recondita; 2.5 ppm in the spray liquor): 22%

CCCCCCCCCCCCCN1CC(C)OC(C)C1 (stereo not drawn) [Compound III, tridemorph]
Efficacy in % of the untreated control ([1]; 0.15 ppm in the spray liquor): 0%
Efficacy in % of the untreated control ([1]; 0.6 ppm in the spray liquor): 0%
Efficacy in % of the untreated control ([1]; 2.5 ppm in the spray liquor): 48%
Efficacy in % of the untreated control (Puccinia recondita; 0.15 ppm in the spray liquor): 0%
Efficacy in % of the untreated control (Puccinia recondita; 0.6 ppm in the spray liquor): 0%
Efficacy in % of the untreated control (Puccinia recondita; 2.5 ppm in the spray liquor): 0%

CC(Cc1ccc(C(C)(C)C)cc1)CN1CCCCC1 (stereo not drawn) [Compound IV, fenpropidin]
Efficacy in % of the untreated control ([1]; 0.15 ppm in the spray liquor): 0%
Efficacy in % of the untreated control ([1]; 0.6 ppm in the spray liquor): 61%
Efficacy in % of the untreated control (Puccinia recondita; 0.15 ppm in the spray liquor): 0%
Efficacy in % of the untreated control (Puccinia recondita; 0.6 ppm in the spray liquor): 0%
Efficacy in % of the untreated control (Puccinia recondita; 2.5 ppm in the spray liquor): 44%
